This is an account of results in patent US20160090364A1, “PHTHALAZINONES AND ISOQUINOLINONES AS ROCK INHIBITORS” (BRISTOL-MYERS SQUIBB COMPANY, priority 2013, published 2016).

Experiment [1] concerns IL-1 beta-induced coronary stenosis. The following applies: porcine, long term treatment; cited from earlier work.
Experiment [2] concerns neointimal formation in rats. The following applies: model similar to balloon injury; cited from earlier work.
The target of experiment [3] is ROCK1 (Homo sapiens, UniProt Q13464). Kind of experiment: ROCK assay (Caliper LabChip peptide phosphorylation), ROCK1. It is filed as biochemical. The note with it: 5 μM ATP, 1.5 μM peptide substrate. On the procedure: The effectiveness of compounds of the present invention as ROCK inhibitors can be determined in a 30 μL assay containing 20 mM HEPES, pH 7.5, 20 mM MgCl2, 0.015% Brij-35, 4 mM DTT, 5 μM ATP and 1.5 μM peptide substrate (FITC-AHA-[…]-OH). Compounds were dissolved in DMSO so that the final concentration of DMSO was <2%, and the reaction was initiated with Rho kinase variants. After incubation, the reaction was terminated by the addition of EDTA and the phosphorylated and non-phosphorylated peptides separated using a LabChip 3000 Reader (Caliper Life Sciences). […] Compounds were tested in dose-response format, and the inhibition of kinase activity was calculated at each concentration of compound. The inhibition data were fit using a curve-fitting program to determine the IC50; i.e., the concentration of compound required to inhibit 50% of kinase activity.”
ROCK1, sequence (Q13464 whole entry, species assumed): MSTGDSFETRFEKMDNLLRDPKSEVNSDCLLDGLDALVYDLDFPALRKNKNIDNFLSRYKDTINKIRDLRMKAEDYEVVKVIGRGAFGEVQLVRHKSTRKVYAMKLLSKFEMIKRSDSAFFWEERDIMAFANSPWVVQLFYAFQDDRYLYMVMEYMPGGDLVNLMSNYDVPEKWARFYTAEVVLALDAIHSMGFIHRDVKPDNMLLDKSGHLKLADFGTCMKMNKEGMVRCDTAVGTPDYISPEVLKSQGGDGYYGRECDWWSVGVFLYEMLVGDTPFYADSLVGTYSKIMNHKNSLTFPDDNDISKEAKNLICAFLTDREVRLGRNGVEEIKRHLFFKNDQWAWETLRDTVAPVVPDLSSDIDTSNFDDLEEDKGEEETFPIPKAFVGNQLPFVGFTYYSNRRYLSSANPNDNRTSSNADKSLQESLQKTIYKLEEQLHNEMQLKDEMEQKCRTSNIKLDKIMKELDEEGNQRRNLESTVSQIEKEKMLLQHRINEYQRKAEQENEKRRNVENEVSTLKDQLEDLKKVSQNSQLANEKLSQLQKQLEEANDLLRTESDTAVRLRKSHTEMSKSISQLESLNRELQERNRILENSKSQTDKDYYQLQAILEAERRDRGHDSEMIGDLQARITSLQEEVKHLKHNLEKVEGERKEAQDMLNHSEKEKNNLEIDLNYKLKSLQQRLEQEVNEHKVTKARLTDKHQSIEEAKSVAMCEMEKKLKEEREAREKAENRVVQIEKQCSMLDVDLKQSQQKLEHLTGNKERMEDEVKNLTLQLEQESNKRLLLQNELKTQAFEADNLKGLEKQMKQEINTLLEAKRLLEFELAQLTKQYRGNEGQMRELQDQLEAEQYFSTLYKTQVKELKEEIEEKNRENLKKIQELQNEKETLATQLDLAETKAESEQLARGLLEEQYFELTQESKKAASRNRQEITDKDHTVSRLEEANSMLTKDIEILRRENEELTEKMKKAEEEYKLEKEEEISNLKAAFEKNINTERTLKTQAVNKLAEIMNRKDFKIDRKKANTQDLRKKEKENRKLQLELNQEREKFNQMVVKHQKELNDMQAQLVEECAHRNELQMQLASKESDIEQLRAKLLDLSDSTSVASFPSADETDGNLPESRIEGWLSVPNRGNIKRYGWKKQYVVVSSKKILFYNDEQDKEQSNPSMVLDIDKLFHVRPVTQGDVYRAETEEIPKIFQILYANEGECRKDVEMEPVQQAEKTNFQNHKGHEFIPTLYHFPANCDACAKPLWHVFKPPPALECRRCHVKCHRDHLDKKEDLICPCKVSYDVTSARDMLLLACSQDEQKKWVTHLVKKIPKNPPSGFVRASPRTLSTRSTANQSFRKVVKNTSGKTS
Representative Examples were tested in the ROCK assay described above and found having ROCK inhibitory activity. A range of ROCK inhibitory activity (IC50 values) of ≦50 μM (50000 nM) was observed. Table A below lists the ROCK IC50 values measured for the following examples.

Bounds are passed on as bounds.

Regarding `O=S(=O)(c1cccc2cnccc12)N1CCCNCC1` [fasudil], in experiment [1], the coronary constrictive remodeling result is on record as “promote a regression of coronary constrictive remodeling” and the coronary stenosis entry is reported as “progressively reduce coronary stenosis”.

With `C[C@@H](N)[C@H]1CC[C@H](C(=O)Nc2ccncc2)CC1` [Example Y-27632, Y-27632], in experiment [2], the neointimal formation result was “inhibited neointimal formation”.

`O=C(Oc1ccc(-c2n[nH]c(=O)c3ccccc23)cc1)N1CCC(c2ccccc2)C1` (stereo not shown) [Example 69, 4-(4-oxo-3,4-dihydrophthalazin-1-yl)phenyl 3-phenylpyrrolidine-1-carboxylate] gave an IC50 in experiment [3] not below 50 µM.
